From patent US9539252B2, “Piperazine-substituted benzothiophene derivatives as antipsychotic agents” (OTSUKA PHARMACEUTICAL CO., LTD., priority 2011, dated 2017)

test: Solubility in oil (sesame oil, benzyl benzoate), visual observation; details: benzyl benzoate, oil or lipid, thermodynamic from solid

solubility, > 100 mg/mL:
CCCCC(C)C(=O)OCN1C(=O)CCc2ccc(OCCCCN3CCN(c4cccc5sccc45)CC3)cc21 (centres unmarked) [Example 78, 2-methylhexanoic acid 7-[4-(4-benzo[b]thiophen-4-ylpiperazin-1-yl)butoxy]-2-oxo-3,4-dihydro-2H-quinolin-1-ylmethyl ester]
CCCCCCCCCCCCCCCCCCN(C)C(=O)OCN1C(=O)CCc2ccc(OCCCCN3CCN(c4cccc5sccc45)CC3)cc21 [Example 79, N-methyl-N-octadecylcarbamic acid 7-[4-(4-benzo[b]thiophen-4-ylpiperazin-1-yl)butoxy]-2-oxo-3,4-dihydro-2H-quinolin-1-ylmethyl ester]
O=C(NCc1ccccc1)OCN1C(=O)CCc2ccc(OCCCCN3CCN(c4cccc5sccc45)CC3)cc21 [Example 80, N-benzylcarbamic acid 7-[4-(4-benzo[b]thiophen-4-ylpiperazin-1-yl)butoxy]-2-oxo-3,4-dihydro-2H-quinolin-1-ylmethyl ester]
CCCC(C)C(=O)OCN1C(=O)CCc2ccc(OCCCCN3CCN(c4cccc5sccc45)CC3)cc21 (centres unmarked) [Example 81, 2-methylpentanoic acid 7-[4-(4-benzo[b]thiophen-4-ylpiperazin-1-yl)butoxy]-2-oxo-3,4-dihydro-2H-quinolin-1-ylmethyl ester]
CCCCCCCCCCCCCC(=O)OCN1C(=O)CCc2ccc(OCCCCN3CCN(c4cccc5sccc45)CC3)cc21 [Example 82, tetradecanoic acid 7-[4-(4-benzo[b]thiophen-4-ylpiperazin-1-yl)butoxy]-2-oxo-3,4-dihydro-2H-quinolin-1-ylmethyl ester]
O=C(NC1CCCCC1)OCN1C(=O)CCc2ccc(OCCCCN3CCN(c4cccc5sccc45)CC3)cc21 [Example 83, N-cyclohexylcarbamic acid 7-[4-(4-benzo[b]thiophen-4-ylpiperazin-1-yl)butoxy]-2-oxo-3,4-dihydro-2H-quinolin-1-ylmethyl ester]
CCCCC(C)(C)C(=O)OCN1C(=O)CCc2ccc(OCCCCN3CCN(c4cccc5sccc45)CC3)cc21 [Example 84, 2,2-dimethylhexanoic acid 7-[4-(4-benzo[b]thiophen-4-ylpiperazin-1-yl)butoxy]-2-oxo-3,4-dihydro-2H-quinolin-1-ylmethyl ester]
CC(=O)OCN1C(=O)CCc2ccc(OCCCCN3CCN(c4cccc5sccc45)CC3)cc21 [Example 85, acetic acid 7-[4-(4-benzo[b]thiophen-4-ylpiperazin-1-yl)butoxy]-2-oxo-3,4-dihydro-2H-quinolin-1-ylmethyl ester]
O=C(OCN1C(=O)CCc2ccc(OCCCCN3CCN(c4cccc5sccc45)CC3)cc21)N1CCOCC1 [Example 86, morpholine-4-carboxylic acid 7-[4-(4-benzo[b]thiophen-4-ylpiperazin-1-yl)butoxy]-2-oxo-3,4-dihydro-2H-quinolin-1-ylmethyl ester]
CCC(C)C(=O)OCn1c(=O)ccc2ccc(OCCCCN3CCN(c4cccc5sccc45)CC3)cc21 (centres unmarked) [Example 87, 2-methylbutyric acid 7-[4-(4-benzo[b]thiophen-4-ylpiperazin-1-yl)butoxy]-2-oxo-2H-quinolin-1-ylmethyl ester]
CCCCC(C)C(=O)OCn1c(=O)ccc2ccc(OCCCCN3CCN(c4cccc5sccc45)CC3)cc21 (centres unmarked) [Example 88, 2-methylhexanoic acid 7-[4-(4-benzo[b]thiophen-4-ylpiperazin-1-yl)butoxy]-2-oxo-2H-quinolin-1-ylmethyl ester]
COC(=O)CNC(=O)OCN1C(=O)CCc2ccc(OCCCCN3CCN(c4cccc5sccc45)CC3)cc21 [Example 89, {7-[4-(4-benzo[b]thiophen-4-ylpiperazin-1-yl)butoxy]-2-oxo-3,4-dihydro-2H-quinolin-1-ylmethoxycarbonylamino}acetic acid methyl ester]
COC(=O)CN(C)C(=O)OCN1C(=O)CCc2ccc(OCCCCN3CCN(c4cccc5sccc45)CC3)cc21 [Example 90, ({7-[4-(4-benzo[b]thiophen-4-ylpiperazin-1-yl)butoxy]-2-oxo-3,4-dihydro-2H-quinolin-1-ylmethoxycarbonyl}methylamino)acetic acid methyl ester]
CCCCCCCCCCCCCCC(=O)OCN1C(=O)CCc2ccc(OCCCCN3CCN(c4cccc5sccc45)CC3)cc21 [Example 91, pentadecanoic acid 7-[4-(4-benzo[b]thiophen-4-ylpiperazin-1-yl)butoxy]-2-oxo-3,4-dihydro-2H-quinolin-1-ylmethyl ester]
CCCCCC(C)C(=O)OCN1C(=O)CCc2ccc(OCCCCN3CCN(c4cccc5sccc45)CC3)cc21 (centres unmarked) [Example 92, 2-methylheptanoic acid 7-[4-(4-benzo[b]thiophen-4-ylpiperazin-1-yl)butoxy]-2-oxo-3,4-dihydro-2H-quinolin-1-ylmethyl ester]
O=C(NCCC(F)(F)F)OCN1C(=O)CCc2ccc(OCCCCN3CCN(c4cccc5sccc45)CC3)cc21 [Example 93, N-(3,3,3-trifluoropropyl)carbamic acid 7-[4-(4-benzo[b]thiophen-4-ylpiperazin-1-yl)butoxy]-2-oxo-3,4-dihydro-2H-quinolin-1-ylmethyl ester]
CCCC(C)C(=O)OCn1c(=O)ccc2ccc(OCCCCN3CCN(c4cccc5sccc45)CC3)cc21 (centres unmarked) [Example 94, 2-methylpentanoic acid 7-[4-(4-benzo[b]thiophen-4-ylpiperazin-1-yl)butoxy]-2-oxo-2H-quinolin-1-ylmethyl ester]
CCCCCCCCCCCCCCCCC(=O)OCN1C(=O)CCc2ccc(OCCCCN3CCN(c4cccc5sccc45)CC3)cc21 [Example 95, heptadecanoic acid 7-[4-(4-benzo[b]thiophen-4-ylpiperazin-1-yl)butoxy]-2-oxo-3,4-dihydro-2H-quinolin-1-ylmethyl ester]
O=C(OCN1C(=O)CCc2ccc(OCCCCN3CCN(c4cccc5sccc45)CC3)cc21)c1ccoc1 [Example 96, furan-3-carboxylic acid 7-[4-(4-benzo[b]thiophen-4-ylpiperazin-1-yl)butoxy]-2-oxo-3,4-dihydro-2H-quinolin-1-ylmethyl ester]
COCCNC(=O)OCN1C(=O)CCc2ccc(OCCCCN3CCN(c4cccc5sccc45)CC3)cc21 [Example 97, N-(2-methoxyethyl)carbamic acid 7-[4-(4-benzo[b]thiophen-4-ylpiperazin-1-yl)butoxy]-2-oxo-3,4-dihydro-2H-quinolin-1-ylmethyl ester]
CCOC(=O)CCNC(=O)OCn1c(=O)ccc2ccc(OCCCCN3CCN(c4cccc5sccc45)CC3)cc21 [Example 99, 3-{7-[4-(4-benzo[b]thiophen-4-ylpiperazin-1-yl)butoxy]-2-oxo-2H-quinolin-1-ylmethoxycarbonylamino}-propionic acid ethyl ester]
CCCCOCCOCC(=O)OCN1C(=O)CCc2ccc(OCCCCN3CCN(c4cccc5sccc45)CC3)cc21 [Example 100, (2-butoxyethoxy)acetic acid 7-[4-(4-benzo[b]thiophen-4-ylpiperazin-1-yl)butoxy]-2-oxo-3,4-dihydro-2H-quinolin-1-ylmethyl ester]

same assay, conditions: sesame oil, oil or lipid, thermodynamic from solid

solubility, > 100 mg/mL:
CCCCCCCCCCCCCCCCCCN(C)C(=O)OCN1C(=O)CCc2ccc(OCCCCN3CCN(c4cccc5sccc45)CC3)cc21 [Example 79, N-methyl-N-octadecylcarbamic acid 7-[4-(4-benzo[b]thiophen-4-ylpiperazin-1-yl)butoxy]-2-oxo-3,4-dihydro-2H-quinolin-1-ylmethyl ester]
